What was measured:
[1] = Anti-angiogenic activity in human endothelial cells assessed as reduction in cell growth incubated for 11 days by PECAM-1 staining based image analysis; conditions: 264 h
HeLa = test: Cytotoxicity against human HeLa cells assessed as growth inhibition; type: functional, cell-based
[2] = Half life in mouse; type: ADME, organism-based; conditions: in vivo
B16-F10 = test: Antimigratory activity against mouse B16-F10 cells assessed as inhibition on cell migration
[3] = molecular target: T1, Heparanase (Homo sapiens) (UniProt Q9Y251); test: Inhibition of recombinant human heparanase at 5 ug/ml incubated for 4 hrs by beta-scintillation counter analysis relative to control; conditions: dose 5.0 µg/ml
T1 sequence (whole entry): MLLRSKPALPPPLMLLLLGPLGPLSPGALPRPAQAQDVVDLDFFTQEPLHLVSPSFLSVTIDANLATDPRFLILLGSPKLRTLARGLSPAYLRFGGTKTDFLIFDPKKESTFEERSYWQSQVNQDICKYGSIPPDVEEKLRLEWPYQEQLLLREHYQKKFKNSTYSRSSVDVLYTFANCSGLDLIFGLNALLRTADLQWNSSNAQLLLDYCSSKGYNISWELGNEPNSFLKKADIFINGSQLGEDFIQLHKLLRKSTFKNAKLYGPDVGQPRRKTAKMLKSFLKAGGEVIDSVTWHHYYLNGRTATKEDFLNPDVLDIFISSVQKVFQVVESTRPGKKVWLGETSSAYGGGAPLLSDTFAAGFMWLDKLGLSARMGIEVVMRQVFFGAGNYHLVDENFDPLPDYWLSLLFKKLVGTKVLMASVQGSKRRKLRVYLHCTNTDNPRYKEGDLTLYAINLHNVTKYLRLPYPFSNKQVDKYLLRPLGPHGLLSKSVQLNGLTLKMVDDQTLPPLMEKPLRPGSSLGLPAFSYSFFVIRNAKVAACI

P-selectin = molecular target: T2, P-selectin (Mus musculus, UniProt Q01102); test: Inhibition of mouse P-selectin assessed as inhibition of adhesion to human LS180 cells to immobilized P-selectin incubated for 1 hrs by ELISA; type: cell-based
T2 sequence (Q01102 whole entry): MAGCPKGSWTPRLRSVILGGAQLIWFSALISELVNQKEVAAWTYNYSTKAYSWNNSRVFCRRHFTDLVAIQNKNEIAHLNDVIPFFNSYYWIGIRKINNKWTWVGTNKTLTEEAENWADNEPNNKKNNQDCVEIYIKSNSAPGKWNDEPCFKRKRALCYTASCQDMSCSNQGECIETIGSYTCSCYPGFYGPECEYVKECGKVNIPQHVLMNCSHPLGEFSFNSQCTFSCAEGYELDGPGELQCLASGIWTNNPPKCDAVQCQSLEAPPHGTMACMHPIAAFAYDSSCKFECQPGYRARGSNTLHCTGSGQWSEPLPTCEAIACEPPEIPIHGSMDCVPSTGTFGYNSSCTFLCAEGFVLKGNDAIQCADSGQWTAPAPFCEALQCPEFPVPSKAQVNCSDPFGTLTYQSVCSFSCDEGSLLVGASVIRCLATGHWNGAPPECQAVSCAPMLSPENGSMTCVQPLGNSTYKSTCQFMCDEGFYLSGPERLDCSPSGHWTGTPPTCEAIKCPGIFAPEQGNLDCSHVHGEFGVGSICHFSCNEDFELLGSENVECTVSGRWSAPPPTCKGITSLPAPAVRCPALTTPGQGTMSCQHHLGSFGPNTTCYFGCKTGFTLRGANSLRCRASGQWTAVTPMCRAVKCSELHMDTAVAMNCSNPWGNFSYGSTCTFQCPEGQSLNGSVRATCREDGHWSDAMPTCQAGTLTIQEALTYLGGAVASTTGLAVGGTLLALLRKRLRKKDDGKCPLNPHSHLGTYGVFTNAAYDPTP

SMILES: CCCNc1ccc(N2C(=O)c3ccc(C(=O)O)cc3C2=O)cc1-c1nc2cc(-c3ccc(Br)cc3)ccc2o1
- IC50 [1]: 0.25 µM

SMILES: COc1ccc(C2CNC(c3ccccc3F)OC23CCCCC3)cc1 (configuration not stated)
- IC50 (HeLa): 48.2 µM

SMILES: O=C(O)c1ccc2c(c1)C(=O)N(c1cccc(-c3nc4ccccc4o3)c1)C2=O
- IC50 [1]: 40 µM

SMILES: O=C(O)Cc1ccc2oc(-c3ccc(/C=C/C(=O)Nc4ccc(Cl)cc4Cl)cc3F)nc2c1
- IC50 [1]: 2 µM

SMILES: O=C(O)Cc1nc(-c2ccc(-c3ccc(NC(=O)/C=C/c4ccc(Br)cc4)cc3Cl)o2)cs1
- IC50 [1]: 1 µM
- half-life [2]: 30 min

SMILES: CCCCCCCCCCCCCCCc1c(O[C@H]2O[C@H](C(=O)OC)[C@@H](O)[C@H](O)[C@H]2O)ccc(O)c1C(=O)Oc1cc(C)c(C(=O)O)c(O)c1
- IC50 (B16-F10): 30 µM

SMILES: O=S(=O)(O)OC[C@@H]1O[C@@H](O[C@@H]2[C@@H](OS(=O)(=O)O)[C@H](OS(=O)(=O)O)C(C3O[C@H](COS(=O)(=O)O)[C@@H](O[C@H]4O[C@H](COS(=O)(=O)O)[C@@H](O[C@H]5O[C@H](COS(=O)(=O)O)[C@@H](OS(=O)(=O)O)[C@H](OS(=O)(=O)O)[C@H]5OS(=O)(=O)O)[C@H](OS(=O)(=O)O)[C@H]4OS(=O)(=O)O)[C@H](OS(=O)(=O)O)[C@H]3OS(=O)(=O)O)O[C@H]2COS(=O)(=O)O)[C@@H](OS(=O)(=O)O)[C@H](OS(=O)(=O)O)[C@H]1O[C@@H]1O[C@@H](COS(=O)(=O)O)[C@H](OS(=O)(=O)O)[C@@H](OS(=O)(=O)O)[C@@H]1OS(=O)(=O)O (stereo in doubt; form 1) [listing 1 of 2 here]
- inhibition [3]: 85%

SMILES: COc1ccc(N2C(=O)c3ccc(C(=O)O)cc3C2=O)cc1-c1nc2cc(-c3ccc4c(c3)OCO4)ccc2o1
- IC50 [1]: 3 µM

SMILES: CCCCCCCCCCCCCCCc1c(O[C@H]2O[C@H](C(=O)O)[C@@H](O)[C@H](O)[C@H]2O)ccc(O)c1C(=O)Oc1cc(C)c(C(=O)O)c(O)c1
- IC50 (B16-F10): 15 µM

SMILES: O=S(=O)(O)OC[C@@H]1O[C@@H](O[C@@H]2[C@@H](OS(=O)(=O)O)[C@H](OS(=O)(=O)O)C(C3O[C@H](COS(=O)(=O)O)[C@@H](O[C@H]4O[C@H](COS(=O)(=O)O)[C@@H](O[C@H]5O[C@H](COS(=O)(=O)O)[C@@H](OS(=O)(=O)O)[C@H](OS(=O)(=O)O)[C@H]5OS(=O)(=O)O)[C@H](OS(=O)(=O)O)[C@H]4OS(=O)(=O)O)[C@H](OS(=O)(=O)O)[C@H]3OS(=O)(=O)O)O[C@H]2COS(=O)(=O)O)[C@@H](OS(=O)(=O)O)[C@H](OS(=O)(=O)O)[C@H]1O[C@@H]1O[C@@H](COS(=O)(=O)O)[C@H](OS(=O)(=O)O)[C@@H](OS(=O)(=O)O)[C@@H]1OS(=O)(=O)O (stereo in doubt; form 1) [listing 2 of 2 here]
- IC50 (P-selectin): 58.2 µM

SMILES: O=S(=O)(O)OC[C@@H]1O[C@@H](O[C@@H]2[C@@H](OS(=O)(=O)O)[C@H](OS(=O)(=O)O)C(C3O[C@H](COS(=O)(=O)O)[C@@H](O[C@H]4O[C@H](COS(=O)(=O)O)[C@@H](O[C@H]5O[C@H](COS(=O)(=O)O)[C@@H](OS(=O)(=O)O)[C@H](OS(=O)(=O)O)[C@H]5OS(=O)(=O)O)[C@H](OS(=O)(=O)O)[C@H]4OS(=O)(=O)O)[C@H](OS(=O)(=O)O)[C@H]3OS(=O)(=O)O)O[C@H]2COS(=O)(=O)O)[C@@H](OS(=O)(=O)O)[C@H](OS(=O)(=O)O)[C@H]1O[C@@H]1O[C@@H](COS(=O)(=O)O)[C@H](OS(=O)(=O)O)[C@@H](OS(=O)(=O)O)[C@@H]1OS(=O)(=O)O (stereo in doubt; form 2)
- inhibition [3]: 58%

— ChEMBL document CHEMBL5257028, “Recent advances in the discovery of heparanase inhibitors as anti-cancer agents” (Eur J Med Chem, 2016)
